According to ChEMBL document CHEMBL1201862, “PubChem BioAssay data set” (2004):
Activity calls are given as the source filed them.

Columns and labels:
[1] = target: Potassium voltage-gated channel subfamily KQT member 2 (Rattus norvegicus, UniProt O88943); experiment: retigabine-insensitive KCNQ2 potentiators, concentration-response, dose response, cell-based, retigabine-insensitive compounds (AID 2654); type: functional
[2] = target: T1, Coagulation factor XII (Homo sapiens, UniProt P00748); experiment: FXIIa inhibitor potency, concentration-response, biochemical (AID 716); type: functional
T1 sequence (P00748 whole entry): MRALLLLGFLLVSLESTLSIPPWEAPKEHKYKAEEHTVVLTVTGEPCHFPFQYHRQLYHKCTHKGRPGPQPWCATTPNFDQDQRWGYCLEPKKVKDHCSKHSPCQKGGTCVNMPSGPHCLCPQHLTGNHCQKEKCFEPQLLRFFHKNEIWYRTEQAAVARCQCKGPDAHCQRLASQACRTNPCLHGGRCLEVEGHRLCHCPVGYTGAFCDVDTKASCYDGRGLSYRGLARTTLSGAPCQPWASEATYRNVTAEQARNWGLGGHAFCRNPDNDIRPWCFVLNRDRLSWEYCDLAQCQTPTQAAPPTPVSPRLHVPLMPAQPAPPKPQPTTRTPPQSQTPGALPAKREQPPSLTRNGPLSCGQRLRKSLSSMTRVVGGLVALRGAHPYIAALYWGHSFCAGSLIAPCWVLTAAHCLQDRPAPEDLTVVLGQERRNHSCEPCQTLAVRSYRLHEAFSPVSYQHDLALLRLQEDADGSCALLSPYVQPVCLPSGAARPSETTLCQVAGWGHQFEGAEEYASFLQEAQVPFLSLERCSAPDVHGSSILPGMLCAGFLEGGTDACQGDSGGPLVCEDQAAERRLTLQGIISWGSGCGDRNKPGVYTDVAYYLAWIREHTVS

[3] = target: T2, Voltage-gated N-type calcium channel alpha-1B subunit/Amyloid beta A4 precursor protein-binding family A member 1 (Homo sapiens, UniProt Q00975+Q02410); experiment: disruptors of Mint-PDZ/N-type channel peptide interaction – biochemical, HTRF, SAR follow-up (AID 2489); type: functional
T2 sequence (Q00975 whole entry): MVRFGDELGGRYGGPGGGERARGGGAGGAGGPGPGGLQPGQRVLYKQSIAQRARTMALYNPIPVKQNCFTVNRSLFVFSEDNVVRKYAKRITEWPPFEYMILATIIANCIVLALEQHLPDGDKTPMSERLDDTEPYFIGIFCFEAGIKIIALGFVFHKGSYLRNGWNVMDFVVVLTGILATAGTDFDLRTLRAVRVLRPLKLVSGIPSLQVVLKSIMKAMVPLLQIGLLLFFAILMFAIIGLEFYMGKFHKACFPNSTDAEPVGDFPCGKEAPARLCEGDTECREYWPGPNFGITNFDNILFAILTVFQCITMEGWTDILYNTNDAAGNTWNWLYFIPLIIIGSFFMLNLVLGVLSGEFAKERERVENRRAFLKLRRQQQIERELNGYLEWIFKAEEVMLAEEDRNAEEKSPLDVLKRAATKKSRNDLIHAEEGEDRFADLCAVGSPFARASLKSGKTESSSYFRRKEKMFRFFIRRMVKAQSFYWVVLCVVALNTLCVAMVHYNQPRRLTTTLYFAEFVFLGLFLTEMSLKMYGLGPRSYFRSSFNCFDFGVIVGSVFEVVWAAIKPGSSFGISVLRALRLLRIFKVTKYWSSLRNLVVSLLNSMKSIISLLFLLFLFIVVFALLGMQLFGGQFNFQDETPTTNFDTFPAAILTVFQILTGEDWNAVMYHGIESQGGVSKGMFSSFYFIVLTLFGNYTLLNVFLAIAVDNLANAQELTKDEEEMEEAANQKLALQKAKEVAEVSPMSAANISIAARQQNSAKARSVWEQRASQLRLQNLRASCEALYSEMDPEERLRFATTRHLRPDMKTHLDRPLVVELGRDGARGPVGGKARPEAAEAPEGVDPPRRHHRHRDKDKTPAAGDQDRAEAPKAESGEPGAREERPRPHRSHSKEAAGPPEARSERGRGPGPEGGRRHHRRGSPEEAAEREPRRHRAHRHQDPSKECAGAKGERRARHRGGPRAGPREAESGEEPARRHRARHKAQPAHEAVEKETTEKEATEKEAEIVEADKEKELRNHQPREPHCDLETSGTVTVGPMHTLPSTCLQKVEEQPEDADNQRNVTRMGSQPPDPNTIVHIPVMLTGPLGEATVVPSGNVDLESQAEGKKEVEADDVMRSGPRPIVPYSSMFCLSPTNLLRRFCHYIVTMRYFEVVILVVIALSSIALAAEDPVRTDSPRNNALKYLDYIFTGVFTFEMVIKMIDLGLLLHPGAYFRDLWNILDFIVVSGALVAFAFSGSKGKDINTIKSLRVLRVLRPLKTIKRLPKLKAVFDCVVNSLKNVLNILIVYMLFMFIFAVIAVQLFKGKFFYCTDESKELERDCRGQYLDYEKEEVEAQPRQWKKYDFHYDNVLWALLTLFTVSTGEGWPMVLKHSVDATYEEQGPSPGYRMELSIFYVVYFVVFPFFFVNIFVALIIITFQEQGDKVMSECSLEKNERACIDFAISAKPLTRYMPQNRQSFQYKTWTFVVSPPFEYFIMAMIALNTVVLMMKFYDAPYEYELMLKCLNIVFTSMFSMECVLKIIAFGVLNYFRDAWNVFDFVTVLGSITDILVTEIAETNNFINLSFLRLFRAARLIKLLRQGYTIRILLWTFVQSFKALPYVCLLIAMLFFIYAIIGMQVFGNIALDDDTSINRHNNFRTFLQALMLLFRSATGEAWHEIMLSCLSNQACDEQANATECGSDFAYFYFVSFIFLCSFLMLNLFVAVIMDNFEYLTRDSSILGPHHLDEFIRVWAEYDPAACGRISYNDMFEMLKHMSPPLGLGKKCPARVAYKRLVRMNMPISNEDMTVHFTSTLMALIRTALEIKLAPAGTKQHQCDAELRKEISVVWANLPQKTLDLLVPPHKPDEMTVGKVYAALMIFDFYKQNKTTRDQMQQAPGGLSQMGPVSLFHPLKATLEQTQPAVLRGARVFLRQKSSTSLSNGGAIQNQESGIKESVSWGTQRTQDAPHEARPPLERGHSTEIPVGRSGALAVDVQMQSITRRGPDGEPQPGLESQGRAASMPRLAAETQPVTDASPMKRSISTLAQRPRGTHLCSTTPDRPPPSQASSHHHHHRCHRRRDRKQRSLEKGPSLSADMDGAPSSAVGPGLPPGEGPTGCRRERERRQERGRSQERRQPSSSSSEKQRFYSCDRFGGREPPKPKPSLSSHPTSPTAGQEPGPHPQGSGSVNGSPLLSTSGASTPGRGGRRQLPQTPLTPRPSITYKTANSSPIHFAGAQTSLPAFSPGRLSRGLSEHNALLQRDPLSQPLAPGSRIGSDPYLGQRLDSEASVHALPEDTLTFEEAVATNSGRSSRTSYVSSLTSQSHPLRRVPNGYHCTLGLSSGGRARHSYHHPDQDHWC
T2 sequence (Q02410 whole entry): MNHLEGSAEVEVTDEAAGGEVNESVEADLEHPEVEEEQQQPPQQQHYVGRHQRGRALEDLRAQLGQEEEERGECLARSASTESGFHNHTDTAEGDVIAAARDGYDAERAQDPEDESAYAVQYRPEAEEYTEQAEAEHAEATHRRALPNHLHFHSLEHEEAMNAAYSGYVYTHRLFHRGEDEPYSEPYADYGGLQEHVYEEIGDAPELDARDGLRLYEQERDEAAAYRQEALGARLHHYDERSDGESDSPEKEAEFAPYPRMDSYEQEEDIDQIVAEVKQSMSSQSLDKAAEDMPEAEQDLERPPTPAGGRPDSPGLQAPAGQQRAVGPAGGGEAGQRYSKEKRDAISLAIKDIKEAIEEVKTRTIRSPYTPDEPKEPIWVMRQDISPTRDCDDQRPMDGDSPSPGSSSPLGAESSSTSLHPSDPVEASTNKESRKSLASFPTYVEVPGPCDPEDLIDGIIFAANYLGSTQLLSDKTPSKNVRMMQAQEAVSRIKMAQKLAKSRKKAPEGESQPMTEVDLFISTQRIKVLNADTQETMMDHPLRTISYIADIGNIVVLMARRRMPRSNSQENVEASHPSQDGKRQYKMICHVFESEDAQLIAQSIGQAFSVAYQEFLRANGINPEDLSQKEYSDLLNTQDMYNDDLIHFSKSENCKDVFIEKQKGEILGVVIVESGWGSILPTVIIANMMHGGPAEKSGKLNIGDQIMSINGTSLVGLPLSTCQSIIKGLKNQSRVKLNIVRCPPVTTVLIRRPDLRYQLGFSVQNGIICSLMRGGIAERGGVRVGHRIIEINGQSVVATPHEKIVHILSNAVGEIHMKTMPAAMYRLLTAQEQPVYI

[4] = target: T2, Voltage-gated N-type calcium channel alpha-1B subunit/Amyloid beta A4 precursor protein-binding family A member 1; experiment: disruptors of Mint-PDZ/N-type channel peptide interaction – biochemical, HTRF, set 2, SAR follow-up (AID 434980); type: functional
[5] = target: T3, RNA-binding protein pos-1 (Caenorhabditis elegans, UniProt G5EF15); experiment: inhibitors of POS-1/mex-3 RNA binding, dose response, biochemical, fluorescence polarization (AID 1964);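 note: purified POS-1 fused to maltose binding protein made in E. coli; potency of compounds blocking POS-1 binding to fluorescent RNA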
T3 sequence (G5EF15 whole entry): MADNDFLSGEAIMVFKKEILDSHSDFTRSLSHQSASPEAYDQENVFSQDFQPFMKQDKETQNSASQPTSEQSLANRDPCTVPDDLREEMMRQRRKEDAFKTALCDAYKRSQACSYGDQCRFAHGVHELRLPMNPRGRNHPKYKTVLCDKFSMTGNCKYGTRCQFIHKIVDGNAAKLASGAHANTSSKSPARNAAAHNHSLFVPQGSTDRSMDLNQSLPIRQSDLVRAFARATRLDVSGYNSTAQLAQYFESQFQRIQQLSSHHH

[6] = target: T4, Polyadenylate-binding protein 1 (Homo sapiens, UniProt P11940); experiment: PABP1 MLLE–PAM2 binding inhibitor potency, dose response, biochemical, fluorescence polarization, FITC-PAM2 peptide (AID 602259); type: functional; details: read-out: IC50_Mean
T4 sequence (P11940 whole entry): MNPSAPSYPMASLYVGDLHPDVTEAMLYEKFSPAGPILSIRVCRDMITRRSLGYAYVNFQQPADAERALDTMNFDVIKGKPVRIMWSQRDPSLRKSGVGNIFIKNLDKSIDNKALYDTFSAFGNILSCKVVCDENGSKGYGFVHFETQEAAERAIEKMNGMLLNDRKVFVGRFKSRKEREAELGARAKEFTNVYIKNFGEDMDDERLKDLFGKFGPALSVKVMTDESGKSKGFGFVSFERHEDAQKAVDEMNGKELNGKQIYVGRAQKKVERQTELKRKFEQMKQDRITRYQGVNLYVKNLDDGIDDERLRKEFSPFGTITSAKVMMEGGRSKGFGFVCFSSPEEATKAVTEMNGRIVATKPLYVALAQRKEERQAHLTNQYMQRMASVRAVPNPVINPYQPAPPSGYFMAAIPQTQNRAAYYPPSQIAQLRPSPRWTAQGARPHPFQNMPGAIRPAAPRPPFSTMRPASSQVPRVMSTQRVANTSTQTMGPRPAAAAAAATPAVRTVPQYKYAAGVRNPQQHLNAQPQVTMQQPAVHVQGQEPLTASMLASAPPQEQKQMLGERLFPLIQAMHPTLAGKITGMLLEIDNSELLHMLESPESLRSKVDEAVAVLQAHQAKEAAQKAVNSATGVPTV

[7] = target: T5, Zinc finger protein mex-5 (Caenorhabditis elegans, UniProt Q9XUB2); experiment: MEX-5/TCR-2 RNA interaction inhibitors, dose response, biochemical, C. elegans, fluorescence polarization (AID 1960)
T5 sequence (Q9XUB2 whole entry): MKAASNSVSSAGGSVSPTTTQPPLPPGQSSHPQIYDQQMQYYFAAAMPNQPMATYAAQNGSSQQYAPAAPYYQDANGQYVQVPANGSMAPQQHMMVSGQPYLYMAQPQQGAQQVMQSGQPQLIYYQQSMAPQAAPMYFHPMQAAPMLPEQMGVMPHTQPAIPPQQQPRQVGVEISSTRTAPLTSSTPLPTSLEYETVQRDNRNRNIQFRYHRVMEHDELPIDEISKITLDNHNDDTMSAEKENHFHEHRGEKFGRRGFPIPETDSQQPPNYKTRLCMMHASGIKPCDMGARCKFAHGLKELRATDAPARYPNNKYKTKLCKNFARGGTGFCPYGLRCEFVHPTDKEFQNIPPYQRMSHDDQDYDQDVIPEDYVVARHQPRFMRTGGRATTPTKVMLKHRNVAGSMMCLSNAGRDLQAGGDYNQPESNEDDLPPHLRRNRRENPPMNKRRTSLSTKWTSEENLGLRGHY

[8] = target: T4, Polyadenylate-binding protein 1; experiment: PABP1 MLLE–PAM2 interaction inhibitors, dose response, miRNA deadenylation inhibitor project, biochemical, fluorescence polarization, Cy5-PAM2 peptide, secondary (AID 602260); type: functional; details: read-out: IC50_Mean
[9] = target: Protein Rev (Human immunodeficiency virus type 1 group M subtype B (isolate HXB2)(HIV-1), UniProt P04618); experiment: inhibitors of Rev binding to RRE RNA, dose response, biochemical, fluorescence polarization, HIV-1 (AID 434976); parameters: species or system Human immunodeficiency virus 1
Chain of Protein Rev (P04618 whole entry): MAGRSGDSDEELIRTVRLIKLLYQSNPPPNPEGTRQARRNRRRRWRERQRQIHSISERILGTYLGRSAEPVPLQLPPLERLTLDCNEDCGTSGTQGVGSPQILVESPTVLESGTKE

[10] = target: Female germline-specific tumor suppressor gld-1 (Caenorhabditis elegans, UniProt Q17339); experiment: inhibitors of GLD-1 binding to TGE RNA, dose response, biochemical, fluorescence polarization, C. elegans (AID 2802);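 note: fluorescence polarization of labeled TGE RNA bound by purified gld-1 protein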
[11] = target: Genome polyprotein (dengue virus type 2, UniProt P29990); experiment: Dengue-2 NS5 methyltransferase inhibitors, primary screen, biochemical, confirmation dose response (AID 588689); type: functional
[12] = target: T6, Rac GTPase-activating protein 1 (Homo sapiens, UniProt Q9H0H5); experiment: MgcRacGAP GTPase-activating activity inhibitors, confirmation, biochemical, ADP Hunter fluorescence, primary and confirmatory (AID 624330); type: functional
T6 sequence (Q9H0H5 whole entry): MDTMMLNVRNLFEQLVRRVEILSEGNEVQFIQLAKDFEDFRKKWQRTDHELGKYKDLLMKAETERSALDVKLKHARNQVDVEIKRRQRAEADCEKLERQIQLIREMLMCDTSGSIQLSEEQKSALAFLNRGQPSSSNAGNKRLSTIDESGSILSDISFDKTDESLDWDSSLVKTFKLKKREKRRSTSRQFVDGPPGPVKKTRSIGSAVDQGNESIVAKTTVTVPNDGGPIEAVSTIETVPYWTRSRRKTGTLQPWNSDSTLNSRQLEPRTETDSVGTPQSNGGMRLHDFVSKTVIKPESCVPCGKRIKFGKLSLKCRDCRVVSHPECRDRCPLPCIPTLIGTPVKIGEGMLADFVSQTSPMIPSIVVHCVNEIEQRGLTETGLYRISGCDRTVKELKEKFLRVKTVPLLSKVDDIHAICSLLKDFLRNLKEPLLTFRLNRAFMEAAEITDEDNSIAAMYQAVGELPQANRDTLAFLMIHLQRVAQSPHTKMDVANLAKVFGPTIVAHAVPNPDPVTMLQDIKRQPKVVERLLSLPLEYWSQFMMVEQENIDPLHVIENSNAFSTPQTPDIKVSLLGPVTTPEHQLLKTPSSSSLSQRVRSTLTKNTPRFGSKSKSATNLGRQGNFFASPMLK

[13] = target: Glucose-6-phosphate 1-dehydrogenase (Homo sapiens, UniProt P11413); experiment: human G6PD enzyme inhibitors, dose response, selectivity assay for P. falciparum G6PD inhibitor project, biochemical, fluorescence (AID 504792); type: functional
[14] = target: T7, Hexokinase HKDC1 (Homo sapiens, UniProt Q2TB90); experiment: HKDC1 hexokinase inhibitors, dose response, biochemical, W721R variant (AID 504729); type: functional
T7 sequence (Q2TB90 whole entry): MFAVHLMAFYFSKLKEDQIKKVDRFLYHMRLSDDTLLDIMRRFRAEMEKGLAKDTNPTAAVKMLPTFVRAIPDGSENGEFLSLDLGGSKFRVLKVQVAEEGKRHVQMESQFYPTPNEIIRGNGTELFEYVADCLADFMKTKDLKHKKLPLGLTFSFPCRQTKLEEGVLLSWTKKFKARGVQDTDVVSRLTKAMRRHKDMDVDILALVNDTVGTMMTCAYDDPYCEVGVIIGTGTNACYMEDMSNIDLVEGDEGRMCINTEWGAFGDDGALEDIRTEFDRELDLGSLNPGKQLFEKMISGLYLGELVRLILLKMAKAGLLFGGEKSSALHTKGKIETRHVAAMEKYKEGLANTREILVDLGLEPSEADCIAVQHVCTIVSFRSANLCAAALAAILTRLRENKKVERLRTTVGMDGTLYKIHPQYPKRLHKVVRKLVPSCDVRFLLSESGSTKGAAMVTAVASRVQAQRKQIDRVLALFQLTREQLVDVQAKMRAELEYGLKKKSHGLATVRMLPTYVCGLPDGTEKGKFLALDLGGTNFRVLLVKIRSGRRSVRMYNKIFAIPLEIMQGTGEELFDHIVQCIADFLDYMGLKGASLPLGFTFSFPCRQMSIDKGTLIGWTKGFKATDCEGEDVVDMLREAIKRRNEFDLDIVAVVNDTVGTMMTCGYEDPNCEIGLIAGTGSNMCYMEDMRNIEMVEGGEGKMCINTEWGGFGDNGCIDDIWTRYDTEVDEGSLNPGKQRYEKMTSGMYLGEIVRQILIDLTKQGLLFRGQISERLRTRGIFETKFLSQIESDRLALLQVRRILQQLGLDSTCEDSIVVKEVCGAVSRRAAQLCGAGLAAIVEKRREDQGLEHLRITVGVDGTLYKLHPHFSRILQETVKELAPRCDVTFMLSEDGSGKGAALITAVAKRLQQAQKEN

[15] = target: Beta-galactosidase (Escherichia coli, UniProt Q8VNN2); experiment: beta-galactosidase enzyme inhibitors and activators, dose response, artefact control for CCR6 antagonist project, biochemical, E. coli enzyme, set 3 (AID 504712); type: functional
[16] = target: Beta Lactamase (Pseudomonas aeruginosa, UniProt Q932Y6); experiment: beta-lactamase reporter inhibitor potency, dose response, artefact control for TLR9-MyD88 binding inhibitor project, BLA reporter cells, FRET fluorescence (AID 588341); type: cell-based;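 note: cell based assay in CHO-K1 cells stably expressing beta-lactamase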
Chain of Beta Lactamase (Q932Y6 whole entry): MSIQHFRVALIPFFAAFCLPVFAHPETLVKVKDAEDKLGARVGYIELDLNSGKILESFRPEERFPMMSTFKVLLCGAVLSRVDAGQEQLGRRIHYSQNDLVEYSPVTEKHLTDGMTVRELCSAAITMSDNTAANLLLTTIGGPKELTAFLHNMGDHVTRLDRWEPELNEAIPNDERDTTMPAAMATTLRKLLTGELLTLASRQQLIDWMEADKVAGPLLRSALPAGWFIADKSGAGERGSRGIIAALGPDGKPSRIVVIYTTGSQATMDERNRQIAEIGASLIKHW

[17] = target: T8, Histone-lysine N-methyltransferase NSD2 (Homo sapiens, UniProt O96028); type: biochemical
T8 sequence (O96028 whole entry): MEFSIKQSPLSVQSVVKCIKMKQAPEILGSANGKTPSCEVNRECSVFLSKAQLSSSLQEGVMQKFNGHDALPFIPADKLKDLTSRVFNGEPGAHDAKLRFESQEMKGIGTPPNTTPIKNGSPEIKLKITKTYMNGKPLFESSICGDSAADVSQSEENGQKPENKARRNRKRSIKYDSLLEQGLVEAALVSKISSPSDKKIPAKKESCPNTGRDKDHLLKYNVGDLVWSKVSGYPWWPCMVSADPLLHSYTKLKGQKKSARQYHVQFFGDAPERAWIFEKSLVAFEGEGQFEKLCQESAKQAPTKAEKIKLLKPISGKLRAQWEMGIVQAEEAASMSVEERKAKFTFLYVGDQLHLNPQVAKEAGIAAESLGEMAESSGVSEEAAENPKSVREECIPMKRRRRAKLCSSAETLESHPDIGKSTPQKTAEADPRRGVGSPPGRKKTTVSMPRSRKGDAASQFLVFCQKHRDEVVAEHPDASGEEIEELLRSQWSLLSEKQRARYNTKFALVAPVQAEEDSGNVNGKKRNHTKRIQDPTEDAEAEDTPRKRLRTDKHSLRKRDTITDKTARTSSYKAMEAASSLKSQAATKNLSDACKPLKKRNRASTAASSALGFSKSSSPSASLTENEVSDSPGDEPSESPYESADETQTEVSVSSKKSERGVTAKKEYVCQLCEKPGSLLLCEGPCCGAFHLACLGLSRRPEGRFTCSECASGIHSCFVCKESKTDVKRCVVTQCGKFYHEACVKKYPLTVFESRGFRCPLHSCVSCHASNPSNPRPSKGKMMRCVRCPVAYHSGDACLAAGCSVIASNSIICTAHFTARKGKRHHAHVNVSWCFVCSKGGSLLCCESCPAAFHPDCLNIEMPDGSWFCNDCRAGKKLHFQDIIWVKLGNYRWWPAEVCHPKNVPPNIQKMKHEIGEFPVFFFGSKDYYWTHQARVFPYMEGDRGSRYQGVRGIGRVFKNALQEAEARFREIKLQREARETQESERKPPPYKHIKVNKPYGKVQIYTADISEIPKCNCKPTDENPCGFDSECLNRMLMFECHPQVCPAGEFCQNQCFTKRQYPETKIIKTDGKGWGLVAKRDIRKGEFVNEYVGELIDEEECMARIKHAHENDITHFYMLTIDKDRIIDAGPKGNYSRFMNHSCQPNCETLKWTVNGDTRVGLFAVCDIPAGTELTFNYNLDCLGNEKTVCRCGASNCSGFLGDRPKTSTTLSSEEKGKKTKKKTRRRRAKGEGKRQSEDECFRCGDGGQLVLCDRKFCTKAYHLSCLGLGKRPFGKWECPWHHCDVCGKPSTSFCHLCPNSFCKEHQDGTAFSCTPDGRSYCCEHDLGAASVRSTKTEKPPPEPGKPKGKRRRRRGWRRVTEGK

[18] = tested on: CHO; experiment: cytotoxicity in TLR9-MyD88 CHO cells, dose response, cytotoxicity control for TLR9-MyD88 binding inhibitor project, cell-based, luminescence (AID 588339); type: functional, hamster; details: Cricetulus griseus;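 note: CHO cells stably coexpressing TLR9 and MyD88 fusions from primary screen; compound exposure lasted 48 hours before viability readout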
[19] = target: Heat shock protein HSP 90-alpha (Homo sapiens, UniProt P07900); type: functional, organism-based

Chain of Potassium voltage-gated channel subfamily KQT member 2 (O88943 whole entry): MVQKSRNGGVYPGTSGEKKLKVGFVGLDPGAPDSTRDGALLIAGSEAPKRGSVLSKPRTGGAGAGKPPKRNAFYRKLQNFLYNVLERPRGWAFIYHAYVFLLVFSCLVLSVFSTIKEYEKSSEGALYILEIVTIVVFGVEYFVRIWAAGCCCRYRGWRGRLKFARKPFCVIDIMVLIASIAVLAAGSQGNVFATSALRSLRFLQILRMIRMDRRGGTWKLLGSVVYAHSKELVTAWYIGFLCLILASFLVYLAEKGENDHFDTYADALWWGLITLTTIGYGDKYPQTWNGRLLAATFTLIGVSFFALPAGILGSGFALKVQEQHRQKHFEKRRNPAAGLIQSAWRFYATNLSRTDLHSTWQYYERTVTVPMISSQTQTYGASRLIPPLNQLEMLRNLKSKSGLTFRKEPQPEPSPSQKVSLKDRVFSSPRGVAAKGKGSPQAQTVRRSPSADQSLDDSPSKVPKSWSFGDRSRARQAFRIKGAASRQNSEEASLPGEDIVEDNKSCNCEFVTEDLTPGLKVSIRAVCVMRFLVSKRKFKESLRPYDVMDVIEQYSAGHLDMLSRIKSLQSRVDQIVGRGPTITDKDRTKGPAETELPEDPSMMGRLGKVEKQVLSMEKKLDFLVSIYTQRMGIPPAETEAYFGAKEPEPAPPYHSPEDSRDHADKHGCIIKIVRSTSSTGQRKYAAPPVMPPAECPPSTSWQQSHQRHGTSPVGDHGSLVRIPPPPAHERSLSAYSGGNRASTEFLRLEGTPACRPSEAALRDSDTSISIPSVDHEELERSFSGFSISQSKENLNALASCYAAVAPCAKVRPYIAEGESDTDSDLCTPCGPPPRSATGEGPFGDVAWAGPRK

`O=C(Nc1cccnc1)Nc1cccc(Cl)c1` was tested, and the EC50 [1] was 18.3 µM (active).
With `COc1ccc(CNc2nc(NCc3ccc(OC)cc3)n(S(C)(=O)=O)n2)cc1` the IC50 [2] was > 50 µM (inactive).
`COC(=O)c1cc(N2C(=O)C3C(C2=O)C2(C)C=CC3(C)O2)ccc1Cl` (stereo not drawn) was tested, and the IC50 [3] was > 56.8 µM (inactive) and the IC50 [4] was > 56.8 µM (inactive).
With `O=C1c2ccccc2C(=O)c2c1cccc2N(CCO)CCO` the EC50 [5] was 19.6 µM (active), the IC50 [6] was 47.7 µM (inactive) and the EC50 [7] was 17 µM (active). For the same compound, the IC50 [8] was > 66 µM (inactive), the IC50 [9] was 8.44 µM (active) and the IC50 [10] was 5.51 µM (active). The IC50 [11] was 28.8 µM (active).
`O=C(NCc1ccc(Cl)cc1Cl)Nc1ccc(Cl)nc1` was tested, and the EC50 [1] was 3.74 µM (active).
In the case of `O=C1C(Cl)=C(NCCc2ccccc2)C(=O)c2ccccc21`, the IC50 [6] is reported as > 66 µM (inactive), the IC50 [8] is reported as > 66 µM (inactive) and the IC50 [12] is reported as 218 µM (active). The IC50 [13] was 19.7 µM (active), the IC50 [14] was 7.92 µM (active) and the IC50 [15] was > 66.6 µM (inactive). The IC50 [16] was 17.7 µM (inactive), the AC50 [17] was 3.78 µM (active) and the IC50 [11] was 9.15 µM (active). For the same compound, the IC50 [18] was 1.58 µM (active) and the AC50 [19] was 3.38 µM (active).
